Measured values published in patent publication US8030466B2, “3′-o-fluorescently modified nucleotides and uses thereof” (Korea Institute of Science and Technology, priority 2009, dated 2011).

Target: T1, Therminator II DNA polymerase (Thermococcus sp., UniProt Q56366, A485L/D141A/E143A/Y409V)
T1 construct: purchased New England Biolabs, Inc. (printed for the ThermoPol II buffer; inferred for the enzyme)
Assay: Extension of DNA primer with MRT by polymerase (MALDI-TOF MS readout)
Type: biochemical
Procedure: The reaction was consisted of 20 cycles at 94° C. for 20 sec, 46° C. for 40 sec, and 60° C. for 90 sec. After the reaction, the mixture was incubated with strepatavidin-coated magnetic beads ([…], Dynabead MyOne, Invitrogen) in PBS buffer ([…]) at room temperature for 30 min.
After removing a fluorescent group from the 3′-end as the same manner as described in Example 4, the obtained DNA was purified by reverse-phased HPLC. The purified DNA was used as a primer for the second extension reaction with the MRT. The extension was performed by the same manner as described in Example 2. The resultant product was characterized using MALDI-TOF mass spectrometry (FIG. 3d).

T1 sequence (Q56366 whole entry D141A/E143A/Y409V/A485L): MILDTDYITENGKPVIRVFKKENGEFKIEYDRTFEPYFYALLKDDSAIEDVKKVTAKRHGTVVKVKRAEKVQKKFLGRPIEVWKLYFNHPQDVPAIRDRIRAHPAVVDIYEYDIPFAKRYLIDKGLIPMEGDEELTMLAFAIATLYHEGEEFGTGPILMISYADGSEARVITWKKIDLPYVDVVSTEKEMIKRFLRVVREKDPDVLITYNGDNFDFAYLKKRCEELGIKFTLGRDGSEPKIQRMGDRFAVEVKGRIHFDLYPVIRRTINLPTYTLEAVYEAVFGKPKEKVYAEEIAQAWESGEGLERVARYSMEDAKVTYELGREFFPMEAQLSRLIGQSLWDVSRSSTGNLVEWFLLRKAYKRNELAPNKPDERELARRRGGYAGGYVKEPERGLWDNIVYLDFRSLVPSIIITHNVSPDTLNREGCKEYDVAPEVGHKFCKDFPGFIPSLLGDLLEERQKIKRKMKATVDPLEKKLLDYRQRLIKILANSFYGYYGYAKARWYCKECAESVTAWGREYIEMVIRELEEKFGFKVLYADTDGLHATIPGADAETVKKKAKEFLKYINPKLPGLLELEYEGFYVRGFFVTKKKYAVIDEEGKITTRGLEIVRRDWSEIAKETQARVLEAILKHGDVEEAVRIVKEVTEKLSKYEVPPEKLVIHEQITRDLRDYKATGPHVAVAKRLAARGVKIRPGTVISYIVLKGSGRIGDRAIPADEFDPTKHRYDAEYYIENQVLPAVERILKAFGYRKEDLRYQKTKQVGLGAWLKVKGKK

3′-O-(7-hydroxycoumarin)-dTTP [Compound 13]
primer extension by MRT (biotinylated primer/template, 4 units Therminator II DNA polymerase, 20 cycles): the primer was extended by MRT
second primer extension by MRT after label elimination (deprotected, HPLC-purified extended primer used as primer, Therminator II DNA polymerase): the primer chain could be extended again by another MRT
